Literature values in patent US20150182481A1, “USE OF POLYMER D-LACTIC ACID (PDLA) TO TREAT PAIN” (priority 2013, published 2015).

How the values were obtained:
[1] = system: nerve poisoned by iodoacetic acid (I.A.A.) and continuously tetanized; settings: I.A.A. solution containing lactate 180 mg/100 cc
[2] = system: C fibers; settings: 300 mM lactic acid injection

## CC(O)C(=O)[O-].[Na+] (stereo not shown) [sodium lactate]
[1]
  effect on sustained galvanic contractions of the nerve: enhances repeated nerve tetanization

## C[C@H](O)C(=O)O [lactic acid, L-Lactic acid]
[2]
  firing of C fibers: increase firing of C fibers

## C[C@@H](O)C(=O)O [d-lactic acid]
Asymptomatic exercising subjects
  plasma d-lactate in asymptomatic exercising subjects: 12 mM
Reversible altered mental status, dysarthria, ataxia
  average plasma concentration at which neurotoxic: 7.98 mM
